The record followed here is patent US7517644B1, “Method and compositions for cellular reprogramming” (priority 1991, dated 2009).

Data set [1] deals with AML blast cells freshly obtained from patients. In words: junD ODN on fresh AML blasts: suspension culture viable counts and blast colony assay. The format is cell-based, human. The note with it: 7 days incubation, suspension culture viable cell counts. On the procedure:
In the initial tests, the H(1)junD oligo or a control ODN were incubated with AML blast cells for seven days. The blast cells were freshly obtained from patients with AML and were cultured and evaluated for ODN effects as described by Bayever et al.(Leukemia and Lymphoma 12: 223-231, 1994). In brief, after the incubation with ODNs, the blast cells were then washed, and adjusted to 10^5 cells per ml and continued in culture for several more days. Viable cell counts were performed every 2-3 days on suspension cultures and oligo-treated blast cells were plated in the “blast colony assay” to determine the effects of the ODNs on the leukemic stem cells.

For data set [2], the system named is 8226/Dox cells. In words: sensitization of P-glycoprotein-expressing drug-resistant cells to vincristine (Table XVII). The data set is classed as cell-based, human. The settings on record: for Fold increase in Drug Sensitivity: 8226/Dox6 cells, versus media control; for sensitization to vincristine: P-glycoprotein-expressing drug-resistant 8226/Dox. The protocol:
To determine relative activity among the various MDR1 antisense ODNs, they were incubated at several different ODN concentrations in cell culture medium with the human multiple myeloma cell lines 8226/Dox4 or 8226/Dox6 (gifts of Dr. William Dalton, University of Arizona Cancer Center, Tucson) (Dalton et al., Cancer Res. 46: 5125, 1986). Specifically, the human myeloma cells were incubated with the antisense ODNs for four (4) days, in a humidified, 5% CO2 atmosphere containing a reduced oxygen level of 5%, maintained by purging the culture incubator with nitrogen gas in place of ambient room air. Addition of an antioxidant to the cultures during exposure of the cells to the ODN further reduces the effects of the free radicals induced by the ODNs on cells (this effect can include increased expression of MDR1). The cell cultures were then incubated with a chemotherapeutic anti-cancer agent overnight (15-18 hrs), after which the cell cultures were washed repeatedly and then seeded into 96-well microtest plates to permit quantitative analysis of their growth. Tritiated-thymidine was added to these cultures for 18-hrs prior to termination of the assays on day 4 following exposure to the anticancer agents. Each test combination of cells, antisense ODN and anti-cancer agent was run in quadruplicate replicates.

For data set [3], the system named is DU-145 prostate cancer cells. Put plainly: sensitization of MRP-expressing prostate cancer cells to drug (Table XVII). The data set is classed as cell-based, human.
The subject of data set [4] is drug-sensitive (parent) cancer cell lines. In words: drug sensitization of drug-sensitive (parent) cancer cell lines (Table XVII). The format is cell-based, human. The source says:
The enhanced reduction in P-glycoprotein expression due to the combined antisense and aptameric-like effects likely causes the associated reduction in cell proliferation. It has been previously shown that treating P-glycoprotein-expressing cells with monoclonal antibodies capable of binding to and blocking P-glycoprotein function leads to a substantial reduction in the proliferation of the treated cells. […] The term “aptameric-like” is used because the effect seen is seen with some sequences but not others (aptameric); aptameric-like effects are substantially more common among ODN sequences than are the usual aptameric effects. […] In general, this situation in which the antisense and an aptameric-like effect of an ODN both act to reduce expression of the same gene (e.g., MDR1) can be expected to be a very uncommon finding among antisense ODN therapeutics directed to other gene targets. […]

In data set [5] the test system is ovarian carcinoma. Put plainly: anticancer effect of junD ODN on solid tumors. The data set is classed as cell-based.
Data set [6] relates to malignant cell lines.

Take “H(1)junD: junD antisense ODN, GTCGGCGTGG TGGTGA (antisense GTCGGCGTGGTGGTGA; DNA, backbone and methylation of C not given here; listed as Homo sapiens)”: in data set [1], the antileukemic effect entry was “as great or a greater antileukemic effect than OL(1)p53”. For the same substance, the “Fold increase in Drug Sensitivity” value in data set [2] turned out to be 500; in data set [3] (DU-145 cells, versus media control), 19; in data set [4] (8226/sensitive parent cells, versus media control), 3. Moreover, the sensitization to vincristine entry in data set [2] is on record as “sensitize”. Besides, in data set [3] (DU-145, express MRP and not P-glycoprotein), the “sensitization to chemotherapeutic agent” value is given as “sensitize”. Also, the “drug sensitization of drug-sensitive lines” value in data set [4] is “minimal sensitizing potential”. Further, in data set [5], the “anticancer effects on solid tumors” value was “anticancer effects”. For the same substance, in data set [6], the “cytotoxic or anticancer growth-inhibitory effect on malignant cell lines” value is recorded as “less of a cytotoxic or anticancer growth-inhibitory effect”.
As to “H(2)junD: junD antisense ODN, GCTCGTCGGC GTGGTGGTGA (antisense GCTCGTCGGCGTGGTGGTGA; DNA, backbone and methylation of C not given here; listed as Homo sapiens)”, in data set [2], the “Fold increase in Drug Sensitivity” value is recorded as 1091 and the sensitization to vincristine entry is “sensitize”. In data set [6], the “cytotoxic or anticancer growth-inhibitory effect on malignant cell lines” value was “less of a cytotoxic or anticancer growth-inhibitory effect”.
